Laboratory results as given in PubChem BioAssay (NCI).
Values joined by “and” are separate entries in the source; they are usually repeats but may differ in a detail not shown here. Equal entries are not always repeated.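 Grown in 96-well plates, cells were treated for 48 hours with each compound at five concentrations. Insufficient inhibition: endpoint recorded as highest concentration tested. GI50 = concentration required for 50% inhibition of growth. TGI marks complete inhibition of growth.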

Assays:
Test in all cases: growth of human tumour cells (NCI), 48 h
IGROV1 ovarian = test system: IGROV1 ovarian
MALME-3M melanoma = test system: MALME-3M melanoma
NCI-H460 lung = test system: NCI-H460 lung
OVCAR-5 ovarian = test system: OVCAR-5 ovarian
RPMI-8226 leukemia = test system: RPMI-8226 leukemia
SF-295 CNS = test system: SF-295 CNS
SF-539 CNS = test system: SF-539 CNS
TK-10 renal = test system: TK-10 renal
UACC-62 melanoma = test system: UACC-62 melanoma
UO-31 renal = test system: UO-31 renal

SMILES	TGI (IGROV1 ovarian)	TGI (MALME-3M melanoma)	TGI (NCI-H460 lung)	TGI (OVCAR-5 ovarian)	TGI (RPMI-8226 leukemia)	TGI (SF-295 CNS)	TGI (SF-539 CNS)	TGI (TK-10 renal)	TGI (UACC-62 melanoma)	TGI (UO-31 renal)	GI50 (IGROV1 ovarian)	GI50 (MALME-3M melanoma)	GI50 (NCI-H460 lung)	GI50 (OVCAR-5 ovarian)	GI50 (RPMI-8226 leukemia)	GI50 (SF-295 CNS)	GI50 (SF-539 CNS)	GI50 (TK-10 renal)	GI50 (UACC-62 melanoma)	GI50 (UO-31 renal)
CC1=NN(C(=O)CC(=O)NC(=O)CC(=O)Nc2ccccc2F)C(=O)C1N=Nc1ccc([N+](=O)[O-])cc1 (stereo not given)	> 100 µM	> 100 µM	> 100 µM	> 100 µM	46.3 µM	> 100 µM	> 100 µM	> 100 µM	> 100 µM	84.2 µM										
C=C(C)[C@@H]1CC[C@]2(C)[C@H](CC=C3[C@@H]4[C@@H](C)[C@H](C)CC[C@]4(C(N)=O)CC[C@]32C)[C@@]1(C)CCC#N	> 100 µM	27.9 µM	29.6 µM	> 100 µM	6.27 µM	> 100 µM	16.6 µM	91.5 µM	29 µM	26.1 µM	5580 nM	5690 nM	8350 nM	5750 nM	2180 nM	4440 nM	4790 nM	8410 nM	5690 nM	3460 nM
COc1cc(/C=N/NC(=O)c2cnn3c2NC(c2ccccc2)C3)ccc1Oc1ccccc1 (stereo not given)	10.8 µM	5.26 µM	2.83 µM	11.9 µM	31.4 µM	2.08 µM	2.51 µM	11.5 µM	7.3 µM	12.2 µM	1360 nM	1210 nM	875 nM	2340 nM	2830 nM	522 nM	1030 nM	2620 nM	888 nM	1690 nM
CCN1C(=O)N(c2ccccc2)C2NC(=S)N(/N=C/C=C/c3ccccc3)C21 (stereo not given)	> 58.2 µM	> 100 µM	> 36.1 µM	> 100 µM	> 100 µM	> 100 µM	0.854 µM	> 100 µM	> 100 µM	> 100 µM	599 nM	2830 nM	377 nM	631 nM	451 nM	276 nM	246 nM	825 nM	197 nM	499 nM
COc1ccccc1N1CCN(CCc2c[nH]c3cc4c(cc23)OCO4)CC1	> 100 µM	> 100 µM	> 100 µM	> 100 µM	> 100 µM	27.7 µM	> 100 µM	> 100 µM	> 100 µM	> 100 µM	40200 nM	27900 nM	15500 nM	15500 nM	25100 nM	646 nM	20200 nM	27100 nM	32200 nM	20300 nM
CN1C(=O)C(CC(=O)O)NC1=S (stereo not given)	> 100 µM	> 100 µM	> 100 µM	> 100 µM	> 100 µM	> 100 µM	> 100 µM	> 100 µM	> 100 µM	> 100 µM										
CC(NCCC(=O)N(CCC(=O)N(CCC(=O)N(CCC(=O)N(CCC(=O)N(CCC(=O)N(CCC(=O)N(CCC(=O)N(CCC(=O)N(CCC(=O)O)[C@H](C)c1ccccc1)[C@H](C)c1ccccc1)[C@H](C)c1ccccc1)[C@H](C)c1ccccc1)[C@H](C)c1ccccc1)[C@H](C)c1ccccc1)[C@H](C)c1ccccc1)[C@H](C)c1ccccc1)[C@H](C)c1ccccc1)c1ccccc1 (stereo not given in full)	15 µM	5.91 µM	6.64 µM	> 75 µM	4.08 µM	5.55 µM	3.67 µM	23.2 µM	2.96 µM	> 75 µM	872 nM	2040 nM	2050 nM	> 18800 nM	1100 nM	1920 nM	1490 nM	3380 nM	1320 nM	3550 nM
O=C(c1ccccc1)C(Br)C(Br)c1cccc([N+](=O)[O-])c1 (stereo not given)	7.5 µM	3.84 µM	14.9 µM	5.65 µM	6.24 µM	24 µM	5.05 µM	8.31 µM	3.56 µM	3.14 µM	2750 nM	2000 nM	3120 nM	2460 nM	2150 nM	10800 nM	2320 nM	2810 nM	1790 nM	1680 nM
CCC[CH2][Sn]([CH2]CCC)([CH2]CCC)[O]C(=O)c1ccc(Cl)cc1Cl	0.308 µM	0.258 µM	0.299 µM	0.315 µM		0.375 µM	0.327 µM	0.267 µM	0.368 µM	0.304 µM	150 nM	111 nM	143 nM	135 nM	146 nM	197 nM	172 nM	132 nM	161 nM	146 nM
CN(C)CC1C(=O)O[C@H]2[C@H]1CC/C(COC(=O)c1cc3ccccc3[nH]1)=C\CC[C@@]1(C)O[C@@H]21 (stereo not given in full)	4.62 µM	4.56 µM	25.6 µM	6.15 µM	2.11 µM	18.5 µM	5.86 µM	3.98 µM	3.89 µM	2.36 µM	1970 nM	1800 nM	7350 nM	2370 nM	354 nM	4870 nM	2200 nM	2040 nM	1720 nM	872 nM
CC(C)COCC(CN(Cc1ccccc1)c1ccccc1)N1CCCC1 (stereo not given)	15 µM	4.74 µM	8.14 µM	15.8 µM	5.41 µM	6.5 µM	19.4 µM	12 µM	12.5 µM	13.1 µM	3180 nM	1890 nM	2540 nM	3930 nM	1910 nM	2020 nM	6460 nM	3430 nM	2870 nM	1960 nM
COc1cccc(OCCCN)c1-c1cc(Nc2cnc(C#N)cn2)n[nH]1	15.6 µM	16.1 µM	12.6 µM	15.2 µM	7.59 µM	13.4 µM	0.0627 µM and 0.12 µM	0.417 µM					48.7 nM and 43.6 nM	38.1 nM and 43 nM	197 nM and 48.9 nM	3.7 nM	3.66 nM	6.5 nM	23.1 nM	27.9 nM and 32.1 nM
O=C1C2C(c3ccccc3)NC(c3ccccc3)C1C(c1ccccc1)NC2c1ccccc1 (stereo not given)	> 100 µM	> 100 µM	> 100 µM	> 100 µM	> 100 µM	> 100 µM	> 100 µM	> 100 µM	> 100 µM	> 100 µM										
Cc1cc2[nH]c(=O)c3c4ccccc4cn3c2cc1C	26.6 µM	37.5 µM	20.3 µM	27.4 µM	29.8 µM	28.5 µM	27 µM	34.2 µM	31.9 µM	28 µM	12300 nM	22200 nM	4430 nM	13800 nM	6750 nM	12200 nM	11200 nM	19700 nM	16700 nM	14600 nM
CNCCNc1c2c(c(NCCNC)c3[nH]ccc13)C(=O)c1ccccc1C2=O	0.686 µM	1.32 µM	0.501 µM	1.93 µM	0.214 µM	0.901 µM	1.07 µM	0.502 µM	1.05 µM	0.818 µM	111 nM	258 nM	99.1 nM	536 nM	51 nM	139 nM	458 nM	183 nM	231 nM	201 nM
COC(=O)NN=C1C(C)(C)C(=O)C1(C)C	> 100 µM	> 100 µM	> 100 µM	> 100 µM	> 100 µM	> 100 µM	> 100 µM	> 100 µM	> 100 µM	> 100 µM										
C=C1C(=O)O[C@H]2[C@H]1CCC(/C=N/c1ncc(Br)cc1N)=C\CC[C@@]1(C)O[C@@H]21	7.44 µM	3.6 µM	22.3 µM	11.5 µM	5.01 µM	24.3 µM	6.82 µM	3.19 µM	4.22 µM	2.63 µM	2110 nM	1550 nM	5810 nM	3200 nM	1130 nM	10400 nM	2060 nM	1600 nM	1870 nM	1280 nM
COc1cc(Cl)cc(-c2nn(-c3cccc(NC(=O)Nc4cc(C(F)(F)F)cc(C(F)(F)F)c4)c3)cc2-c2ccncc2)c1	13.4 µM	4.77 µM	1.71 µM	10.1 µM	1.03 µM	2.25 µM	3.61 µM	14.6 µM	1.71 µM	1.92 µM	669 nM	730 nM	374 nM	1600 nM	288 nM	622 nM	1480 nM	684 nM	416 nM	280 nM
Cc1[nH]c(=O)n2c(C)nnc2c1C(=O)Nc1cc(Cl)cc(Cl)c1	82 µM	> 100 µM	> 100 µM	> 100 µM	> 100 µM	> 100 µM	78.4 µM	52.1 µM	41 µM	68.2 µM										
COc1ccc(NC(=O)COCCOCCNC[C@@H]2C(=O)O[C@H]3[C@H]2CC/C(COC(=O)OC/C2=C/CC[C@@]4(C)O[C@H]4[C@H]4OC(=O)[C@@H](CN(C)C)[C@@H]4CC2)=C\CC[C@@]2(C)O[C@@H]32)c(O)c1C(N)=O	11.8 µM	4.12 µM	> 50 µM	17.4 µM	4.21 µM	> 50 µM	9.92 µM	9.12 µM	11.4 µM	9.13 µM	4680 nM	1520 nM	16500 nM	8900 nM	1420 nM	> 50000 nM	3420 nM	2720 nM	5110 nM	2510 nM
Cc1cc(NCc2cc(Nc3ccnc4cc(Cl)ccc34)ccc2F)nc(N2CCN(C)CC2)n1	5.76 µM	3.66 µM	3.31 µM	5.17 µM	3.65 µM	2.55 µM	3.37 µM	5.49 µM	3.81 µM	3.11 µM	2080 nM	1840 nM	1500 nM	2050 nM	1320 nM	1090 nM	1790 nM	2030 nM	1910 nM	1380 nM
Nc1nc(N)c2c(n1)NC(c1ccc(F)cc1)C1CCc3ccccc3C1=N2 (stereo not given)	24.1 µM	15 µM	13.6 µM	26.3 µM	5.11 µM	6.18 µM	22.4 µM	16.9 µM	17.7 µM	17.3 µM	7790 nM	2520 nM	3760 nM	13100 nM	1810 nM	1710 nM	10500 nM	3630 nM	3760 nM	3340 nM
O=[N+]([O-])c1cc(C2SCc3nc4ccccc4n32)ccc1Cl (stereo not given)	> 100 µM	> 100 µM	> 100 µM	76.8 µM	60.2 µM	> 100 µM	89.5 µM	> 100 µM	52.6 µM	58.6 µM										
C=C1C(=O)OC2C=C(CCC(C)=O)C(C)C(OC(C)=O)CC12 (stereo not given)	43.9 µM	25.2 µM	40.6 µM	29.6 µM	24 µM	40.2 µM	28.5 µM	24.4 µM	27.4 µM	26.6 µM										
CCN(CC)CCn1c2ccccc2c(=O)c2c(O)ccc(O)c21	66.3 µM	49.3 µM	> 71.9 µM	> 78.5 µM	85.4 µM	56.1 µM	50.3 µM	49.2 µM	52.8 µM	63.8 µM										
Fc1ccccc1C1SCc2nc3ccccc3n21 (stereo not given)	> 100 µM	> 100 µM	> 100 µM	> 100 µM	> 100 µM	> 100 µM	> 100 µM	> 100 µM	> 100 µM	> 100 µM										
C=C1C(=O)O[C@H]2[C@H](OC(C)=O)[C@@H](C)CCC/C(C)=C/CC[C@@]3(C)O[C@@H]3C[C@@H]12	18.4 µM	30.6 µM	19.7 µM	27.6 µM	6.5 µM	28.5 µM	13.9 µM	5 µM	9.43 µM	7.51 µM										
